Measured values published in paper PMC9032718, “Eltrombopag as an Allosteric Inhibitor of the METTL3-14 Complex Affecting the m^6A Methylation of RNA in Acute Myeloid Leukemia Cells” (Pharmaceuticals, 2022).

Tests used:
METTL3-14 complex = biological target: T1, METTL3-14 complex (Homo sapiens, UniProt Q86U44); experiment: METTL3-14 enzyme-based bioluminescence assay (screening assay); format: biochemical; conditions: IC50 not affected by SAM 50-1600 nM or RNA 25-800 nM
T1 construct: genes encoding the full-length and MTase domain of human METTL3; METTL3-14 FL: full length of METTL3-14; 10x His (thrombin-cleavable) (cleaved yes); made in house; host or cells: Trichoplusia ni (Hi5) cells co-infected with two baculoviruses (virus made in Sf9)
Description: (§1) An enzymatic bioluminescence assay was established to identify the METTL3-14 inhibitor through screening. […] METTL3-14 activity was assessed by measuring the luminescence using a Victor multilabel reader (PerkinElmer, Waltham, MA, USA). The IC50 values were calculated by a nonlinear regression analysis using OriginPro 9.1 software (OriginLab).
(§2) To confirm the mechanism of action of eltrombopag in the METTL3-14 complex, 30 nM METTL3-14 and serially diluted eltrombopag were reacted with various concentrations of SAM or RNA substrate and saturating concentrations of the other substrate (3 μM SAM or 2 μM RNA substrate) for 20 min. To evaluate the inhibitory activity in a single form of METTL3 and METTL14, 1 μM of METTL3 and 300 nM of METTL14 were incubated with 1 μM of SAM, 500 nM of RNA substrates, and serially diluted eltrombopag for 5 h. To measure the inhibitory activity in the truncated form of the METTL3-14 complex, 1 μM of the truncated METTL3-14 complex was reacted with 1 μM of SAM, 500 nM of RNA substrates, and serially diluted eltrombopag for 5 h.

PRDM9 = biological target: T2, PRDM9 (Homo sapiens, UniProt Q9NQV7); experiment: Methyltransferase selectivity panel (MT HotSpot radioisotope assay), PRDM9; format: biochemical; conditions: 10 μM eltrombopag
T2 construct: purchased Reaction Biology (Malvern, PA, USA), contract assay
Description: (§3) The selectivity profile of eltrombopag was investigated by testing the level of inhibition in a methyltransferase panel. The inhibition of 7 […] methyltransferase was tested at Reaction Biology (Malvern, PA, USA) using a gold standard radioisotope-based MT assay (MT HotSpot^TM) with 10 μM of eltrombopag in duplicate.

PRMT1 = biological target: T3, PRMT1 (Homo sapiens, UniProt Q99873); experiment: Methyltransferase selectivity panel (MT HotSpot radioisotope assay), PRMT1; format: biochemical; conditions: 10 μM eltrombopag
T3 construct: purchased Reaction Biology (Malvern, PA, USA), contract assay
Excerpt: The selectivity profile of eltrombopag was investigated by testing the level of inhibition in a methyltransferase panel.

SETD2 = biological target: T4, SETD2 (Homo sapiens, UniProt Q9BYW2); experiment: Methyltransferase selectivity panel (MT HotSpot radioisotope assay), SETD2; format: biochemical; conditions: 10 μM eltrombopag
T4 construct: purchased Reaction Biology (Malvern, PA, USA), contract assay
Description: as §3

METTL3 = biological target: T5, METTL3 (Homo sapiens, UniProt Q86U44); experiment: Bioluminescence enzyme assay, single form of METTL3; format: biochemical; conditions: 1 μM METTL3, 1 μM SAM, 500 nM RNA, 5 h; read-out: IC50, single subunit enzyme form of METTL3
T5 construct: 10x His (thrombin-cleavable); made in house; host or cells: insect cells, baculovirus (pVL1393)
Description: as §1, §2

[1] = biological target: T6, truncated METTL3-14 complex (Homo sapiens, UniProt Q86U44); experiment: Bioluminescence enzyme assay, truncated form of METTL3-14 (methyltransferase domain); format: biochemical
T6 construct: MTase domain of human METTL3 (residues 369 to 580); METTL14 (residues 106 to 396); 10x His (thrombin-cleavable) (cleaved yes); made in house; host or cells: Trichoplusia ni (Hi5) cells co-infected with two baculoviruses
Description: as §1, §2

MOLM-13 cells [2] = experiment: Anti-proliferative assay (EZ-cytox), MOLM-13; format: cell-based; conditions: Homo sapiens, MOLM-13, 72 h
Description: (§4) The MOLM-13, MOLM-14, HL60, MV4-11, and THP-1 cells were seeded in white 96-well clear bottomed plates with 100 μL of medium (5000 cells/well). The plated cells were treated with serially diluted compounds and incubated for 72 h at 37 °C. After incubation, 10 μL of EZ-cytox kit reagent from the EZ-cytox cell viability assay kit (DaeiLab, Seoul, Korea) was added to each well and then incubated for 3 h at 37 °C. The absorbance of metabolically active cells was measured at a wavelength of 450 nm using a Victor multilabel reader (PerkinElmer). The GI50 values were calculated by nonlinear regression analysis using OriginPro 9.1 software (OriginLab).

MOLM-14 cells = experiment: Anti-proliferative assay (EZ-cytox), MOLM-14; format: cell-based; conditions: Homo sapiens, MOLM-14, 72 h
Description: as §4

MV4-11 cells = experiment: Anti-proliferative assay (EZ-cytox), MV4-11; format: cell-based; conditions: Homo sapiens, MV4-11, 72 h
Description: as §4

MOLM-13 cells [3] = experiment: Combinatorial analysis of AML drugs with eltrombopag (EZ-cytox, Synergyfinder); format: cell-based; conditions: Homo sapiens, MOLM-13; for inhibition at 1.5 µM: MOLM-13, eltrombopag alone 1,500 nM; for inhibition at 3 µM: MOLM-13, eltrombopag alone 3,000 nM; for inhibition at 6 µM: MOLM-13, eltrombopag alone 6,000 nM; for inhibition at 12 µM: MOLM-13, eltrombopag alone 12,000 nM
Description: The MOLM-13 cells were seeded in white 96-well clear bottomed plates with 50 μL of medium (5000 cells/well). The plated cells were treated with serially diluted eltrombopag and current AML drugs, including venetoclax, cytarabine, gilteritinib, and sorafenib, to a final volume of 100 μL and incubated for 72 h at 37 °C. After incubation, 10 μL of EZ-cytox kit reagent from the EZ-cytox cell viability assay kit (DaeiLab) was added to each well and then incubated for 3 h at 37 °C. The absorbance of metabolically active cells was measured at a wavelength of 450 nm using a Victor multilabel reader (PerkinElmer). The synergy scores of each combination were quantified by the HAS model, ZIP model, Loewe additivity model, and Bliss independence models using Synergyfinder software. Positive or negative synergy scores obtained through these models represent synergy and antagonism, respectively.

[4] = parameters: method as in PMID 34225039; conditions: cited from earlier work
[5] = parameters: method as in PMID 30305280, PMID 30002802; conditions: cited from earlier work

T6 sequence (Q86U44 369-580): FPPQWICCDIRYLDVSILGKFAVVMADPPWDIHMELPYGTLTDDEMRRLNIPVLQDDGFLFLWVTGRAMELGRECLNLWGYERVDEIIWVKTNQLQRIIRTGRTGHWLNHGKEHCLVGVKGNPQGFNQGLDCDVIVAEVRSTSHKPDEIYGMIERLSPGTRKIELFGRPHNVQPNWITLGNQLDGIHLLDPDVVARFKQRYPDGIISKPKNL
T6 sequence (Q9HCE5 106-396 partner limits assumed): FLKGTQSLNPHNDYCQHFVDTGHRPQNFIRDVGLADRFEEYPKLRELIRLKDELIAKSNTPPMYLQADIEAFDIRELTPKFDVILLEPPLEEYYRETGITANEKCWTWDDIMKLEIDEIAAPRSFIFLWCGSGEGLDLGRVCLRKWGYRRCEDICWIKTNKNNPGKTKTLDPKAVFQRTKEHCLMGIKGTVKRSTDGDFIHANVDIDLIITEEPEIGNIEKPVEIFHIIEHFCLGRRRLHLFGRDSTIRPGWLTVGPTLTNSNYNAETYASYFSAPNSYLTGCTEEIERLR
T5 sequence (Q86U44 whole entry): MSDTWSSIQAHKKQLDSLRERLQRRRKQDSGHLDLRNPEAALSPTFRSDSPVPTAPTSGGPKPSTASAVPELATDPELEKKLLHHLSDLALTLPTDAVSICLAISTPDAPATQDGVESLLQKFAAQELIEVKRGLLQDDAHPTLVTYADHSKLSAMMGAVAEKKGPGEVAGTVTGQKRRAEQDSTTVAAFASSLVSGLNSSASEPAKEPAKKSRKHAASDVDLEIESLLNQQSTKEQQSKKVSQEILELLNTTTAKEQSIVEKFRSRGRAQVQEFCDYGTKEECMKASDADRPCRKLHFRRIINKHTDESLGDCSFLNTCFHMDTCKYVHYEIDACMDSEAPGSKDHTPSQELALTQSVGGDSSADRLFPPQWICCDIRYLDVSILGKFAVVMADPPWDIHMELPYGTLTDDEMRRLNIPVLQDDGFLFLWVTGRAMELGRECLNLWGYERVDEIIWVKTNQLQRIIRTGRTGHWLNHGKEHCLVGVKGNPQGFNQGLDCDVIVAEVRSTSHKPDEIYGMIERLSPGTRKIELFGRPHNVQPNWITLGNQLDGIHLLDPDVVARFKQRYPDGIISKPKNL
T1 sequence (Q86U44 whole entry, the tested form may be a part): as the sequence (Q86U44 whole entry) above
T1 sequence (Q9HCE5 whole entry partner, the tested form may be a part): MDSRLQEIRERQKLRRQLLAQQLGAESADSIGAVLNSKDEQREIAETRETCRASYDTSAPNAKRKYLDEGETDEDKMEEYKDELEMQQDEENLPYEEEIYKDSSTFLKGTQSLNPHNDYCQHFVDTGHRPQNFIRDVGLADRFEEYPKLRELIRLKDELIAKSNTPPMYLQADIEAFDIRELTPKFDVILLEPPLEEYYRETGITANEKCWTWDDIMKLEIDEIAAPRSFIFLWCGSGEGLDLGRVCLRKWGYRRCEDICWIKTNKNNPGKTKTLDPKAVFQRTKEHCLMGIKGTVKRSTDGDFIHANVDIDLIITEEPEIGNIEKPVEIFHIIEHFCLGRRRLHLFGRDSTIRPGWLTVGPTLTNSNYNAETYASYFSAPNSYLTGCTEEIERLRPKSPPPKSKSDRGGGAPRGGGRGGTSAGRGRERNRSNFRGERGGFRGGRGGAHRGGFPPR
T4 sequence (Q9BYW2 whole entry): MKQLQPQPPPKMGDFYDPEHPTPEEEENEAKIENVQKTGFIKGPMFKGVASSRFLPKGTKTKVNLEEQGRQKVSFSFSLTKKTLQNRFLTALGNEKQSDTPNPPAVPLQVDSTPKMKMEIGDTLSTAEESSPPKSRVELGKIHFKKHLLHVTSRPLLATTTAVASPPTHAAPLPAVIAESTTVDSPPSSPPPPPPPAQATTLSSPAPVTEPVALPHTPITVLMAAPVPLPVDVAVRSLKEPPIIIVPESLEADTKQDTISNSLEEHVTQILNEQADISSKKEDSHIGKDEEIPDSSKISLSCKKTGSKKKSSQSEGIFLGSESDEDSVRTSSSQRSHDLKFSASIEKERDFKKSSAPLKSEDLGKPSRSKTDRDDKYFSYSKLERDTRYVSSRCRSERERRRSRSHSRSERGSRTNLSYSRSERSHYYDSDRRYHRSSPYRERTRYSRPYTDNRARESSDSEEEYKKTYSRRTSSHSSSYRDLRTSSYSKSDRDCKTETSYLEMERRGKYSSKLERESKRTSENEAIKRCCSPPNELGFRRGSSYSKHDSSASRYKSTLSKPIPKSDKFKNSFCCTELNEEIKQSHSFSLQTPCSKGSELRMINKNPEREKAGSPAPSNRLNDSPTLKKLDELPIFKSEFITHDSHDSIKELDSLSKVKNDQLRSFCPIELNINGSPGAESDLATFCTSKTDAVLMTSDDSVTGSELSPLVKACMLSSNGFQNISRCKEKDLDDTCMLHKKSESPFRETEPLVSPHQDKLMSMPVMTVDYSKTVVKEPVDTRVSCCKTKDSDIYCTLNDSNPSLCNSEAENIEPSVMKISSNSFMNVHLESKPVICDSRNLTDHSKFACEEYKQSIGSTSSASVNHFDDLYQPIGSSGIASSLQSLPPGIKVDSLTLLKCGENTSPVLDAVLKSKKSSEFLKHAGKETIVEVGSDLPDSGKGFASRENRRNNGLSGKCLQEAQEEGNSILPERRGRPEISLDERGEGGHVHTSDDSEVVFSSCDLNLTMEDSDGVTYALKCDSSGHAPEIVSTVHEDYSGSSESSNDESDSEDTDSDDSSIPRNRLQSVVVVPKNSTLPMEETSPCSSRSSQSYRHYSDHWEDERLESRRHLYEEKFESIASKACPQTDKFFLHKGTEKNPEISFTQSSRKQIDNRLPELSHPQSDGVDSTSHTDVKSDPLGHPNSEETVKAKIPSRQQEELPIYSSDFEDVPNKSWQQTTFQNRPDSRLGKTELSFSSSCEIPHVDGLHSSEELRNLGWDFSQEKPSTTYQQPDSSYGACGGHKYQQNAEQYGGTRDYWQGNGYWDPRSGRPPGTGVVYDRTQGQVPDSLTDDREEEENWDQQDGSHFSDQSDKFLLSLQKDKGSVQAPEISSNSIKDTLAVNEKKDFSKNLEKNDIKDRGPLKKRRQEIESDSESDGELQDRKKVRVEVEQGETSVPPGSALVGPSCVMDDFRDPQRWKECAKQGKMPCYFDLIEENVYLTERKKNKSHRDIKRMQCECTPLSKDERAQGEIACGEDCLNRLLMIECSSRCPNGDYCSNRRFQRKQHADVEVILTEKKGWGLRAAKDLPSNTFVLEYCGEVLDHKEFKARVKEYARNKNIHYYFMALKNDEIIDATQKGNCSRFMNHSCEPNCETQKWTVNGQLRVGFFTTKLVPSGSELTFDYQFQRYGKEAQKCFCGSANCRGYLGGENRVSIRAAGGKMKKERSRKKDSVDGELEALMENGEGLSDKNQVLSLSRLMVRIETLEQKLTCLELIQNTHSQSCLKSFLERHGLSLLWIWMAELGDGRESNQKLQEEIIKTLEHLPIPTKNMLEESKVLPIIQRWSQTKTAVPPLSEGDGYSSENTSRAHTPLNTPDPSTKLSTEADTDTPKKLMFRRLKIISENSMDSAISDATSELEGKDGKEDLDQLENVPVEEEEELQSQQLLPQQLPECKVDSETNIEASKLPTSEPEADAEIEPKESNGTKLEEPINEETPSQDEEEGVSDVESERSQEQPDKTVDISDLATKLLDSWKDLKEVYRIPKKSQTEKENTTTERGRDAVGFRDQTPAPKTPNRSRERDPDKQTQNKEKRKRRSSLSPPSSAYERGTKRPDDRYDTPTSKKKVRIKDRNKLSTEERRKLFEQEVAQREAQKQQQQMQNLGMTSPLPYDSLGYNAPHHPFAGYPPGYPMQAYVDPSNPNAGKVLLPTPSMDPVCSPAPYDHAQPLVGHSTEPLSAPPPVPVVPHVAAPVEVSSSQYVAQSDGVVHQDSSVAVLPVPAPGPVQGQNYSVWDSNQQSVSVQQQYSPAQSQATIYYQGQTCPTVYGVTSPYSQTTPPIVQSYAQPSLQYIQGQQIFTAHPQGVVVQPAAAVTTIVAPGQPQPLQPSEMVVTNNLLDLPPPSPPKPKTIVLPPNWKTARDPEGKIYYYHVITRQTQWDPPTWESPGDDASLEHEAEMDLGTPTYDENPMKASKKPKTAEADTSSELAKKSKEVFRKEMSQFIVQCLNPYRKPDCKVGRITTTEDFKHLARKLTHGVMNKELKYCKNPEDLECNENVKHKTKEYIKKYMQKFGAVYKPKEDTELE
T2 sequence (Q9NQV7 whole entry): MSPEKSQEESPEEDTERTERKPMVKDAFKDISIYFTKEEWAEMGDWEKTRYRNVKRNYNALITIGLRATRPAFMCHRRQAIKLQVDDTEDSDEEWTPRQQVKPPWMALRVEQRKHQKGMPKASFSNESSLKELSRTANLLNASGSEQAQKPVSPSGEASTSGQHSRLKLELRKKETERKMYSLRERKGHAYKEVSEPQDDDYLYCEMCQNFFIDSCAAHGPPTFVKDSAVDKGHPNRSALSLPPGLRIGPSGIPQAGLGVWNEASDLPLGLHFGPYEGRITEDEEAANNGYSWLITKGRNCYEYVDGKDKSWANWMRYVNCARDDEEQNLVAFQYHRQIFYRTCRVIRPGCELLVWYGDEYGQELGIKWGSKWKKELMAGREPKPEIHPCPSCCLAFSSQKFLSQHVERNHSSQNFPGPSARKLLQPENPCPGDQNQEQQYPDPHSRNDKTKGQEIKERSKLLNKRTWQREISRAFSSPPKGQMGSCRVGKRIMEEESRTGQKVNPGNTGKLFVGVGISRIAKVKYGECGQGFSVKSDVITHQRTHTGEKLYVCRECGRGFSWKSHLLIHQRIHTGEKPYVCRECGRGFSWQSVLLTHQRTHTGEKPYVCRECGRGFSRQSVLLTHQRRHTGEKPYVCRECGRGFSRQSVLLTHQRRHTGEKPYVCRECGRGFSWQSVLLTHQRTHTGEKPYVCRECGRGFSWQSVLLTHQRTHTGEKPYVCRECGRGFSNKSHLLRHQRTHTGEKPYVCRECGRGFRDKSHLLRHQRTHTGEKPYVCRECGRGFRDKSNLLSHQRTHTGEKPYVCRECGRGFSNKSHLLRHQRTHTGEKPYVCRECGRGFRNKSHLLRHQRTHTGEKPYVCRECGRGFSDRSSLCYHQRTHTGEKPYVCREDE

Compound: CC1=NN(c2ccc(C)c(C)c2)C(=O)/C1=N\Nc1cccc(-c2cccc(C(=O)O)c2)c1O [Eltrombopag]
- mode of enzyme inhibition (METTL3-14 complex): noncompetitive inhibitor
- remaining activity at 10 µM (PRDM9): 130 ± 4%
- remaining activity at 10 µM (PRMT1): 96.1 ± 3.9%
- remaining activity at 10 µM (SETD2): 97.3 ± 4.1%
- IC50 (METTL3): 7.04 µM
- fold change of IC50, truncated versus full length METTL3-14 [1]: 3.5 fold
- IC50 ([1]; 1 μM truncated complex, 1 μM SAM, 500 nM RNA, 5 h): 12 µM
- GI50 (MOLM-13 cells [2]): 8.28 µM
- GI50 (MOLM-14 cells): 10.4 ± 0.7 µM
- GI50 (MV4-11 cells): 14.3 ± 0.1 µM
- inhibition at 1.5 µM (MOLM-13 cells [3]; cytarabine matrix (panel C)): 9.02 ± 5.05%
- inhibition at 1.5 µM (MOLM-13 cells [3]; venetoclax matrix (panel A)): 13 ± 2.13%
- inhibition at 3 µM (MOLM-13 cells [3]; cytarabine matrix (panel C)): 24.8 ± 2.76%
- inhibition at 3 µM (MOLM-13 cells [3]; venetoclax matrix (panel A)): 30 ± 5.01%
- inhibition at 6 µM (MOLM-13 cells [3]; cytarabine matrix (panel C)): 61.6 ± 1.03%
- inhibition at 6 µM (MOLM-13 cells [3]; venetoclax matrix (panel A)): 69.4 ± 2.33%
- inhibition at 12 µM (MOLM-13 cells [3]; cytarabine matrix (panel C)): 93.83 ± 0.61%
- inhibition at 12 µM (MOLM-13 cells [3]; venetoclax matrix (panel A)): 94.91 ± 0.86%
- water solubility [4]: low
- safety in clinical studies, combination with azacitidine ([5]; combination with azacitidine compared with azacitidine alone): increased progression to acute myeloid leukemia
- safety in clinical studies, monotherapy ([5]; monotherapy): didn’t show any safety concerns
